Values joined by “and” are separate entries in the source; they are usually repeats but may differ in a detail not shown here. Equal values may be shown once.
Assays:
[1] = system: nitrotyrosine immunoreactivity in astrocytes; assay: Example 1: nitrotyrosine immunoreactivity in hippocampal CA1 astrocytes one week after icv STZ; type: in vivo, Sprague-Dawley rats; details: for Increase in nitrotyrosine immunoreactivity in astrocytes in three areas of the CA1 region of the hippocampus: ladostigil 1.0 mg/kg daily oral, one week before to one week after icv STZ
Procedure: The study was performed on male Sprague-Dawley rats (Harlan, Jerusalem) weighing 320-340 g, aged 4 months, according to the guidelines of the University Committee for Institutional Animal Care and based on those of the National Institutes of Health, USA. The rats were housed for one week prior to surgery in the Animal House at an ambient temperature of 21±1° C. and a 12 hr diurnal light cycle (lights on at 0700 hr).
Male Sprague-Dawley rats (30) weighing 320-340 g, were anaesthetized by an intraperitoneal (i.p.) injection of Equithesin 0.3 ml/kg. STZ (0.5 mg) in 2 μl artificial cerebrospinal fluid (CSF) was injected into each lateral ventricle of 20 rats. The stereotaxic co-ordinates for icv injection were: 0.9 mm posterior, 1.8 mm lateral and 3.8 mm ventral from the bregma level. Control rats (10) received a bilateral injection of 2 μl artificial CSF. Half of the STZ-injected rats were given ladostigil (1 mg/kg) orally in a volume of (1 ml/kg) one week before, and for one week after icv STZ. The remainder, received 1 ml/kg water. The rats were anaesthetized with sodium pentobarbitone, perfused transcardially and the brains processed for immunocytochemistry as described below.
The brains were sectioned in a cryostat in 30 μm thick slices and stained immunochemically with the following markers: Nitrotyrosine, a marker of nitrative/oxidative stress, was stained with rabbit anti-nitrotyrosine from Upstate (Lake Placid, N.Y., USA), diluted 1:100. Glial fibrillary acidic protein (GFAP), a marker of astrocyte activation, was stained with mouse antibody, clone GA-5 from Sigma (Rehovot, Israel), diluted 1:500. […]. For rabbit antibodies, the secondary donkey anti-rabbit conjugated with horseradish peroxidase from Chemicon (Temecula, Calif., USA), was diluted 1:200. For mouse anti-GFAP, the secondary goat anti mouse conjugated with horseradish peroxidase from Sigma (Rehovot, Israel), was diluted 1:100. Colour development was obtained by reaction with diaminobenzidine and hydrogen peroxide as described in Shoham et al., Intracerebroventricular injection of streptozotocin causes neurotoxicity to myelin that contributes to spatial memory deficits in rats, Exp. Neurol. (2003) 184:1043-52. Images were obtained by bright field microscopy and quantitative assessments of appropriate markers were made by means of densitometric measurements with AnalySIS software.
Rectangular fields measuring 200 μm×100 μm were sampled from these areas in two sections containing the hippocampus from each rat. The percentage area in which nitrotyrosine immunoreactivity was seen was computed and averaged between the two sections.
Densitometic data were analyzed by univariate ANOVA followed by Duncan's post hoc test.

MAO-A = target: T1, MAO-A (Rattus norvegicus, UniProt P21396); assay: Example 2: MAO-A activity in homogenates of striatum; type: in vivo, rats; details: chronic 1 mg/kg; for MAO-A (%) inhibition: Striatum
T1 construct: from tissue; host or cells: striatum homogenate of dosed Sprague-Dawley rats
T1 sequence (P21396 1-526): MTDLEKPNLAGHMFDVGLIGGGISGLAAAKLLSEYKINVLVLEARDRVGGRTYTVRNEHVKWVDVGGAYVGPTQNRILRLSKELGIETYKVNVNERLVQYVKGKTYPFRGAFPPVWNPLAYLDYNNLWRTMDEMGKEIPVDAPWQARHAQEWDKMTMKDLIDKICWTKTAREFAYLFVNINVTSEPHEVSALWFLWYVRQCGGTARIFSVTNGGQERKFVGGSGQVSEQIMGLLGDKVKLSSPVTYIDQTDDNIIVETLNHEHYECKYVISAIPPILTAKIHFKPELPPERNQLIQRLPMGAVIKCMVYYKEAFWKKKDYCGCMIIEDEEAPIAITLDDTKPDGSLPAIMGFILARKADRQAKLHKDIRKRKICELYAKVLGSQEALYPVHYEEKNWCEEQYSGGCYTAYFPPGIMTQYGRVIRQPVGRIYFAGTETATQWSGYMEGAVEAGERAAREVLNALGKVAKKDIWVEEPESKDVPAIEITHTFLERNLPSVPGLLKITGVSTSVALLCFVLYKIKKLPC
Procedure: The effect of chronic ladostigil treatment on ChE activity in the cortex and hippocampus of rats was determined one week after icv STZ in 12 rats (3 treated with water and 9 with ladostigil). The effect of acute treatment with ladostigil 1 or 17 mg/kg was determined 2 hrs after drug administration. […] The brain was rapidly removed, washed with saline on ice and the cortex, hippocampus and striatum dissected out, quickly weighed and stored at −70° C. until assay. Total ChE activity in the cortex and hippocampus was measured as described in Wang et al., Gender differences in the effect of rivastigmine on brain cholinesterase activity and cognitive function in rats, Neuropharmacology (2000) 39:497-506, using the spectrophotometric method of Ellman et al., A new and rapid colorimetric determination of acetylcholinesterase activity, Biochem. Pharmacol. (1961) 7:88-95 with acetylthiocholine (Sigma Ltd) as a substrate using homogenate of 100 mg tissue in 1 ml phosphate buffer. To determine only butyrylcholinesterase (BuChE) activity the amounts of tissue/ml of buffer were increased 3-fold and butyrylthiocholine (Sigma Ltd) was used as a substrate. MAO A and B activity was measured in homogenates of striatum as described in Weinstock et al., Limited potentiation of blood pressure response to oral tyramine by brain-selective monoamine oxidase A-B inhibitor, TV-3326 in conscious rabbits, Neuropharmacology (2002) 43:999-1005.

cultured microglia = assay: Release of NO from cultured microglia induced by LPS; type: cell-based; details: concentrations of 0.1-10 μM; preliminary data
Procedure: It is therefore likely that the neuroprotective effect of ladostigil resulted from other actions of the drug. These could include a direct effect on microglia as shown in preliminary data from experiments in our laboratory in which concentrations of 0.1-10 μM reduced by 20-40% the release of NO from cultured microglia induced by LPS. These concentrations are too low to inhibit ChE in microglia.

[2] = system: dopaminergic neuroblastoma SH-SY5Y cells; details: cited from earlier work
cultured neuronal cells = details: low concentrations; cited from earlier work
[3] = STZ + ladostigil 1 mg/kg orally one week before and one week after icv STZ, mean of two sections per rat
[4] = STZ + ladostigil 1 mg/kg orally, n = 5

Q: For `C#CCN[C@@H]1CCc2ccc(OC(=O)N(C)CC)cc21` [ladostigil, R(+)-6-(N-methyl,N-ethyl-carbamoyloxy)-N′-propargyl-1-aminoindan], which “Nitrotyrosine Immunoreactivity, Alveus (percentage area), individual rat” value [1, 3] is on record?
A: Its value is 4 and 9.5 and 7 and 9 and 15.

Q: And the “Nitrotyrosine Immunoreactivity, Stratum oriens (percentage area), individual rat” value [1, 3]?
A: Its value is 14.5 and 19 and 5.5 and 8.5 and 20.5.

Q: What about the “Nitrotyrosine Immunoreactivity, Stratum radiatum (percentage area), individual rat” value [1, 3] of the same molecule?
A: The value was 1.5 and 22 and 3 and 7.5 and 11.5.

Q: What about the “Nitrotyrosine Immunoreactivity, Alveus (percentage area), group Mean ± SEM” value [1, 4] of the same molecule?
A: Its value is 8.9 ± 1.8.

Q: And the “Nitrotyrosine Immunoreactivity, Stratum oriens (percentage area), group Mean ± SEM” value [1, 4]?
A: The value was 13.6 ± 2.9.

Q: And the “Nitrotyrosine Immunoreactivity, Stratum radiatum (percentage area), group Mean ± SEM” value [1, 4]?
A: Its value is 9.1 ± 3.7.

Q: And the “Increase in nitrotyrosine immunoreactivity in astrocytes in three areas of the CA1 region of the hippocampus” value [1]?
A: The value was “prevented the increase”.

Q: And the “Increase in nitrotyrosine immunoreactivity in astrocytes in three areas of the CA1 region of the hippocampus” value ([1]; listed as Ladostigil)?
A: Its value is “completely prevented the increase”.

Q: And the “MAO-A (%) inhibition” value (MAO-A; 60 min)?
A: Its value is 2.8 ± 2.5%.

Q: What about the “MAO-A (%) inhibition” value (MAO-A; 120 min) of the same molecule?
A: Its value is 3.8 ± 2.0%.

Q: What about the “Effect on striatal MAO-A activity” value (MAO-A) of the same molecule?
A: The value was “no effect”.

Q: What about the “Reduction of the release of NO from cultured microglia induced by LPS” value (cultured microglia) of the same molecule?
A: Its value is 20-40%.

Q: What about the “Apoptosis in SH-SY5Y cells exposed to the NO donor Sin1” value ([2]; 0.1-1 μM) of the same molecule?
A: The value was “prevented apoptosis”.

Q: And the “Apoptosis induced by Sin-1 in cultured SH-SY5Y cells” value [2]?
A: The value was “suppress apoptosis”.

Q: And the “Cytotoxicity induced by ROS and NO in cultured neuronal cells” value (cultured neuronal cells)?
A: The value was “prevent cytotoxicity”.
